Source: ChEMBL document CHEMBL1201862, “PubChem BioAssay data set” (2004)
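Five concentrations, 48 hours, 96-well plates. Abbreviation: GI50, concentration required for 50% inhibition of growth.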 The source made the active and inactive calls. No stated cut-off is given here; in the data, active = GI50 up to about 1.1 µM and inactive = higher.

How the values were obtained:
Assay in all cases: NCI anticancer screen, dose series, 48 h
BT-549 = system: BT-549
CAKI-1 = system: CAKI-1
COLO 205 = system: COLO 205
HL-60 = system: HL-60
HOP-92 = system: HOP-92
HT-29 = system: HT-29
IGROV-1 = system: IGROV-1
LOX IMVI = system: LOX IMVI
MDA-MB-231 = system: MDA-MB-231
NCI-H226 = system: NCI-H226
NCI-H23 = system: NCI-H23
NCI-H522 = system: NCI-H522
NCI/ADR-RES = system: NCI/ADR-RES
OVCAR-8 = system: OVCAR-8
SK-MEL-28 = system: SK-MEL-28
SNB-19 = system: SNB-19
SW-620 = system: SW-620
TK-10 = system: TK-10
UACC-257 = system: UACC-257
UO-31 = system: UO-31

Q: What does the source list for `Nc1nncs1`?
A: GI50 (BT-549): 1940 µM (inactive); GI50 (CAKI-1): 1760 µM (inactive); GI50 (COLO 205): 456 µM (inactive); GI50 (HL-60): 2080 µM (inactive); GI50 (HOP-92): 2260 µM (inactive); GI50 (HT-29): 211 µM (inactive); GI50 (IGROV-1): 2580 µM (inactive); GI50 (LOX IMVI): 1450 µM (inactive); GI50 (MDA-MB-231): 2320 µM (inactive); GI50 (NCI-H226): 3480 µM (inactive); GI50 (NCI-H23): 1640 µM (inactive); GI50 (NCI-H522): 1210 µM (inactive); GI50 (NCI/ADR-RES): 1510 µM (inactive); GI50 (OVCAR-8): 1910 µM (inactive); GI50 (SK-MEL-28): 1980 µM (inactive); GI50 (SNB-19): 3730 µM (inactive); GI50 (SW-620): 1260 µM (inactive); GI50 (TK-10): > 5000 µM (inactive); GI50 (UACC-257): 705 µM (inactive); GI50 (UO-31): 3530 µM (inactive)

Q: Which results are given for `O=C(O)c1cc2ccccc2c(/N=N/c2ccc(S(=O)(=O)O)cc2)c1O`?
A: GI50 (BT-549): > 100 µM (inactive); GI50 (CAKI-1): > 100 µM (inactive); GI50 (COLO 205): > 100 µM (inactive); GI50 (HL-60): > 100 µM (inactive); GI50 (HOP-92): > 100 µM (inactive); GI50 (HT-29): > 100 µM (inactive); GI50 (IGROV-1): > 100 µM (inactive); GI50 (MDA-MB-231): > 100 µM (inactive); GI50 (NCI-H226): > 100 µM (inactive); GI50 (NCI-H522): > 100 µM (inactive); GI50 (NCI/ADR-RES): > 100 µM (inactive); GI50 (OVCAR-8): > 100 µM (inactive); GI50 (SK-MEL-28): > 100 µM (inactive); GI50 (SNB-19): 0.0264 µM (active); GI50 (SW-620): > 100 µM (inactive); GI50 (TK-10): > 100 µM (inactive); GI50 (UACC-257): > 100 µM (inactive); GI50 (UO-31): 60.3 µM (inactive)

Q: For `Cc1cc(C)c2c(=O)n(CN3CCC(O)(c4ccccc4)CC3)sc2n1`, which GI50 (BT-549) is on record?
A: 97.3 µM (inactive)

Q: What about the GI50 (CAKI-1) of the same compound?
A: 43.5 µM (inactive)

Q: What about the GI50 (COLO 205) of the same compound?
A: 39.2 µM (inactive)

Q: What about the GI50 (HL-60) of the same compound?
A: 20 µM (inactive)

Q: And the GI50 (HOP-92)?
A: > 100 µM (inactive)

Q: What about the GI50 (HT-29) of the same compound?
A: 28.4 µM (inactive)

Q: What about the GI50 (IGROV-1) of the same compound?
A: > 100 µM (inactive)

Q: And the GI50 (LOX IMVI)?
A: 31.1 µM (inactive)

Q: And the GI50 (MDA-MB-231)?
A: 73.1 µM (inactive)

Q: What about the GI50 (NCI-H226) of the same compound?
A: > 100 µM (inactive)

Q: And the GI50 (NCI-H23)?
A: 27.8 µM (inactive)

Q: What about the GI50 (NCI-H522) of the same compound?
A: 11.8 µM (inactive)

Q: And the GI50 (NCI/ADR-RES)?
A: 53.1 µM (inactive)

Q: What about the GI50 (OVCAR-8) of the same compound?
A: 30.1 µM (inactive)

Q: What about the GI50 (SK-MEL-28) of the same compound?
A: 56.2 µM (inactive)

Q: What about the GI50 (SNB-19) of the same compound?
A: > 100 µM (inactive)

Q: What about the GI50 (SW-620) of the same compound?
A: 26.8 µM (inactive)

Q: What about the GI50 (TK-10) of the same compound?
A: 11.6 µM (inactive)

Q: And the GI50 (UO-31)?
A: 17.2 µM (inactive)

Q: What does the source list for `CCCCOc1c(C(=O)O)cc(Br)cc1C(=O)O`?
A: GI50 (BT-549): > 100 µM (inactive); GI50 (CAKI-1): > 100 µM (inactive); GI50 (COLO 205): > 100 µM (inactive); GI50 (HOP-92): > 100 µM (inactive); GI50 (IGROV-1): > 100 µM (inactive); GI50 (LOX IMVI): > 100 µM (inactive); GI50 (MDA-MB-231): > 100 µM (inactive); GI50 (NCI-H226): > 100 µM (inactive); GI50 (NCI-H23): > 100 µM (inactive); GI50 (NCI-H522): > 100 µM (inactive); GI50 (NCI/ADR-RES): > 100 µM (inactive); GI50 (OVCAR-8): > 100 µM (inactive); GI50 (SK-MEL-28): > 100 µM (inactive); GI50 (SNB-19): > 100 µM (inactive); GI50 (SW-620): > 100 µM (inactive); GI50 (TK-10): > 100 µM (inactive); GI50 (UACC-257): > 100 µM (inactive); GI50 (UO-31): > 100 µM (inactive)

Q: Which GI50 (BT-549) does the source give for `O=C(O)C1CCCCC1C(=O)Nc1nc2ccccc2[nH]1` (configuration not stated) here?
A: > 100 µM (inactive)

Q: And the GI50 (CAKI-1)?
A: > 100 µM (inactive)

Q: And the GI50 (COLO 205)?
A: > 100 µM (inactive)

Q: And the GI50 (HOP-92)?
A: > 100 µM (inactive)

Q: What about the GI50 (HT-29) of the same compound?
A: > 100 µM (inactive)

Q: And the GI50 (IGROV-1)?
A: > 100 µM (inactive)

Q: What about the GI50 (LOX IMVI) of the same compound?
A: > 100 µM (inactive)

Q: And the GI50 (MDA-MB-231)?
A: > 100 µM (inactive)

Q: And the GI50 (NCI-H226)?
A: > 100 µM (inactive)

Q: What about the GI50 (NCI-H23) of the same compound?
A: > 100 µM (inactive)

Q: And the GI50 (NCI-H522)?
A: > 100 µM (inactive)

Q: What about the GI50 (NCI/ADR-RES) of the same compound?
A: > 100 µM (inactive)

Q: And the GI50 (OVCAR-8)?
A: > 100 µM (inactive)

Q: And the GI50 (SK-MEL-28)?
A: > 100 µM (inactive)

Q: And the GI50 (SNB-19)?
A: > 100 µM (inactive)

Q: And the GI50 (SW-620)?
A: > 100 µM (inactive)

Q: What about the GI50 (TK-10) of the same compound?
A: > 100 µM (inactive)

Q: And the GI50 (UACC-257)?
A: > 100 µM (inactive)

Q: And the GI50 (UO-31)?
A: > 100 µM (inactive)

Q: Which GI50 (BT-549) does the source give for `N#CC(C#N)=Cc1ccc(C=C2SC3=C(SCCS3)S2)s1` here?
A: 1.28 µM (inactive)

Q: What about the GI50 (CAKI-1) of the same compound?
A: 3.47 µM (inactive)

Q: And the GI50 (COLO 205)?
A: 8.73 µM (inactive)

Q: What about the GI50 (HL-60) of the same compound?
A: 0.286 µM (active)

Q: What about the GI50 (HOP-92) of the same compound?
A: 17.6 µM (inactive)

Q: And the GI50 (HT-29)?
A: 3.39 µM (inactive)

Q: What about the GI50 (IGROV-1) of the same compound?
A: 4.52 µM (inactive)

Q: What about the GI50 (MDA-MB-231) of the same compound?
A: 33.7 µM (inactive)

Q: What about the GI50 (NCI-H226) of the same compound?
A: 2.27 µM (inactive)

Q: What about the GI50 (NCI-H23) of the same compound?
A: 6.68 µM (inactive)

Q: And the GI50 (NCI-H522)?
A: 2.99 µM (inactive)

Q: And the GI50 (NCI/ADR-RES)?
A: 1.63 µM (inactive)

Q: What about the GI50 (OVCAR-8) of the same compound?
A: 29.9 µM (inactive)

Q: What about the GI50 (SK-MEL-28) of the same compound?
A: > 100 µM (inactive)

Q: What about the GI50 (SNB-19) of the same compound?
A: 44.1 µM (inactive)

Q: What about the GI50 (SW-620) of the same compound?
A: 4.38 µM (inactive)

Q: What about the GI50 (TK-10) of the same compound?
A: 2.07 µM (inactive)

Q: What about the GI50 (UACC-257) of the same compound?
A: 9.38 µM (inactive)

Q: What about the GI50 (UO-31) of the same compound?
A: > 100 µM (inactive)

Q: `O=[N+]([O-])C(=C(Nc1ccccc1)Nc1ccccc1)C(Cl)=C(Cl)Cl` was tested. Which GI50 (BT-549) did it give?
A: 13.9 µM (inactive)

Q: What about the GI50 (CAKI-1) of the same compound?
A: 17.1 µM (inactive)

Q: And the GI50 (COLO 205)?
A: 17.5 µM (inactive)

Q: And the GI50 (HOP-92)?
A: 15.8 µM (inactive)

Q: What about the GI50 (HT-29) of the same compound?
A: 16.4 µM (inactive)

Q: What about the GI50 (IGROV-1) of the same compound?
A: 12.9 µM (inactive)

Q: What about the GI50 (LOX IMVI) of the same compound?
A: 8.77 µM (inactive)

Q: What about the GI50 (MDA-MB-231) of the same compound?
A: 17.3 µM (inactive)

Q: What about the GI50 (NCI-H226) of the same compound?
A: 19 µM (inactive)

Q: And the GI50 (NCI-H23)?
A: 13.6 µM (inactive)

Q: What about the GI50 (NCI-H522) of the same compound?
A: 21.4 µM (inactive)

Q: And the GI50 (NCI/ADR-RES)?
A: 22.6 µM (inactive)

Q: And the GI50 (OVCAR-8)?
A: 22.9 µM (inactive)

Q: And the GI50 (SK-MEL-28)?
A: 18.7 µM (inactive)

Q: And the GI50 (SNB-19)?
A: 17.9 µM (inactive)

Q: And the GI50 (SW-620)?
A: 14.5 µM (inactive)

Q: And the GI50 (TK-10)?
A: 22.6 µM (inactive)

Q: And the GI50 (UACC-257)?
A: 14.9 µM (inactive)

Q: What about the GI50 (UO-31) of the same compound?
A: 24.5 µM (inactive)
